Measurements published in ChEMBL document CHEMBL2074153, “Identification of organic anion transporting polypeptide 4 (Oatp4) as a major full-length isoform of the liver-specific transporter-1 (rlst-1) in rat liver” (FEBS Lett, 2000).

T1: Solute carrier organic anion transporter family member 1B2 (Rattus norvegicus, UniProt Q9QZX8)
T1 sequence (Q9QZX8 whole entry): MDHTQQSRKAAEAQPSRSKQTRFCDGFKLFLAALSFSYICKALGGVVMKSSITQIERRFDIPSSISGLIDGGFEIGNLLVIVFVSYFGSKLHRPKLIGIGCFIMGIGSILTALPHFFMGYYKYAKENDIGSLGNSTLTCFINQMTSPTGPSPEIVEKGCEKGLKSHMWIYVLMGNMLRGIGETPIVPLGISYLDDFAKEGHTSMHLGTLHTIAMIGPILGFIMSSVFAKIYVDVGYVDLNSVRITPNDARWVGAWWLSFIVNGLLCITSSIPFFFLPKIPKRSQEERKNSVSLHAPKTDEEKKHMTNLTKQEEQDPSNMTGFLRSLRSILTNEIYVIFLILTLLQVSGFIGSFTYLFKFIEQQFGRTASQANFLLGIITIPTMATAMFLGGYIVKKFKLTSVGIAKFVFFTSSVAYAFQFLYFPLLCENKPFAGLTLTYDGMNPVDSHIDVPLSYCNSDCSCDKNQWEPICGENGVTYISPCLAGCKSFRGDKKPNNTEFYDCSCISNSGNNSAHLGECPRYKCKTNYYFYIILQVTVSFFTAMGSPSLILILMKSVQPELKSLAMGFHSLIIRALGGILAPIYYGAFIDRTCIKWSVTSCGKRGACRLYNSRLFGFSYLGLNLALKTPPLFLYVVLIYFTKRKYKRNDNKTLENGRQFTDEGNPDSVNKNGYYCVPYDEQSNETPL


How the values were obtained:
[1] = molecular target: T1, Solute carrier organic anion transporter family member 1B2; experiment: (§1) TP_TRANSPORTER: uptake in Xenopus laevis oocytes; format: functional, cell-based; conditions: oocyte
[2] = substrate: O=C1OC(c2ccc(O)c(S(=O)(=O)O)c2)(c2ccc(O)c(S(=O)(=O)O)c2)c2c(Br)c(Br)c(Br)c(Br)c21; experiment: as §1; format: functional, cell-based, Oocyte

Molecule | Activity [1] | Km [2]
N[C@@H](Cc1cc(I)c(Oc2cc(I)c(O)c(I)c2)c(I)c1)C(=O)O [LEVOTHYROXINE] | substrate [+] | 
N[C@@H](Cc1cc(I)c(Oc2ccc(O)c(I)c2)c(I)c1)C(=O)O [LIOTHYRONINE] | substrate [+] | 
Solute carrier organic anion transporter family member 1B2 (Rattus norvegicus) (protein) MDHTQQSRKAAEAQPSRSKQTRFCDGFKLFLAALSFSYICKALGGVVMKSSITQIERRFDIPSSISGLIDGGFEIGNLLVIVFVSYFGSKLHRPKLIGIGCFIMGIGSILTALPHFFMGYYKYAKENDIGSLGNSTLTCFINQMTSPTGPSPEIVEKGCEKGLKSHMWIYVLMGNMLRGIGETPIVPLGISYLDDFAKEGHTSMHLGTLHTIAMIGPILGFIMSSVFAKIYVDVGYVDLNSVRITPNDARWVGAWWLSFIVNGLLCITSSIPFFFLPKIPKRSQEERKNSVSLHAPKTDEEKKHMTNLTKQEEQDPSNMTGFLRSLRSILTNEIYVIFLILTLLQVSGFIGSFTYLFKFIEQQFGRTASQANFLLGIITIPTMATAMFLGGYIVKKFKLTSVGIAKFVFFTSSVAYAFQFLYFPLLCENKPFAGLTLTYDGMNPVDSHIDVPLSYCNSDCSCDKNQWEPICGENGVTYISPCLAGCKSFRGDKKPNNTEFYDCSCISNSGNNSAHLGECPRYKCKTNYYFYIILQVTVSFFTAMGSPSLILILMKSVQPELKSLAMGFHSLIIRALGGILAPIYYGAFIDRTCIKWSVTSCGKRGACRLYNSRLFGFSYLGLNLALKTPPLFLYVVLIYFTKRKYKRNDNKTLENGRQFTDEGNPDSVNKNGYYCVPYDEQSNETPL |  | 1.1 µM
